ChEMBL document CHEMBL2163311, “Anti-herpes simplex virus efficacies of 2-aminobenzamide derivatives as novel HSP90 inhibitors” (Bioorg Med Chem Lett, 2012)
Activity calls are given as the source filed them. The calls are words filed in the database; no cut-off is given here.

Columns and labels:
Human alphaherpesvirus 1 [1] = experiment: Antiviral activity against HSV1 infected herpes simplex keratitis New zealand rabbit model assessed as reduction in viral DNA level in corneal sample at 0.025% to 0.1% administered twice daily as gel 24 hrs post inoculation measured on day 9 post infection by RT-PCR analysis; assay type: functional, organism-based; details: Cornea
[2] = Cytotoxicity against human MRC5 cells after 48 hrs by MTT assay; assay type: cell-based
Human alphaherpesvirus 1 [3] = experiment: Antiviral activity against HSV1 strain F ATCC VR733 infected in african green monkey Vero cells assessed as inhibition of cytopathic effect after 48 hrs by plaque reduction assay; assay type: functional, organism-based; details: for EC50: Human alphaherpesvirus 1, strain F ATCC VR733, Vero
Human alphaherpesvirus 2 [4] = experiment: Antiviral activity against HSV2 strain 333 infected in african green monkey Vero cells assessed as inhibition of cytopathic effect after 48 hrs by plaque reduction assay; assay type: functional, cell-based; details: for EC50: Human alphaherpesvirus 2, strain 333, Vero
Human alphaherpesvirus 2 [5] = experiment: Antiviral activity against HSV2 strain 333 infected in african green monkey Vero cells assessed as inhibition of cytopathic effect at 4 uM after 48 hrs by plaque reduction assay; assay type: functional, cell-based
[6] = Selectivity index, ratio of CC50 for african green monkey Vero cells to EC50 for HSV1 strain F ATCC VR733 infected in african green monkey Vero cells; assay type: toxicity, cell-based; details: read-out: Ratio CC50/EC50
[7] = Cytotoxicity against african green monkey Vero cells assessed as inhibition of cell viability after 48 hrs by MTT assay; assay type: cell-based; details: chlorocebus sabaeus
[8] = Selectivity index, ratio of CC50 for african green monkey Vero cells to EC50 for HSV2 strain 333 infected in african green monkey Vero cells
Human alphaherpesvirus 1 [9] = experiment: Antiviral activity against HSV1 strain F ATCC VR733 infected in african green monkey Vero cells assessed as inhibition of cytopathic effect at 4 uM after 48 hrs by plaque reduction assay; assay type: functional, organism-based
Human alphaherpesvirus 1 [10] = experiment: Antiviral activity against HSV1 infected herpes simplex keratitis New zealand rabbit model assessed as reduction in viral DNA level in corneal sample compound administered twice daily as gel 24 hrs post inoculation measured on day 9 post infection by RT-PCR analysis; assay type: functional, organism-based; details: Cornea
Human alphaherpesvirus 1 [11] = experiment: Antiviral activity against HSV1 infected herpes simplex keratitis New zealand rabbit model assessed as reduction in corneal epithelia involvement score at 0.025% to 0.1% administered twice daily as gel 24 hrs post inoculation measured on day 9 post infection; assay type: functional, organism-based; details: Cornea
Human alphaherpesvirus 1 [12] = experiment: Antiviral activity against HSV1 infected herpes simplex keratitis New zealand rabbit model at 0.025% to 0.1% administered twice daily as gel 24 hrs post inoculation measured on day 9 post infection; assay type: functional, organism-based
Human alphaherpesvirus 1 [13] = experiment: Antiviral activity against HSV1 infected herpes simplex keratitis New zealand rabbit model at 0.025% administered twice daily as gel 24 hrs post inoculation measured on day 9 post infection; assay type: functional
Human alphaherpesvirus 1 [14] = experiment: Antiviral activity against HSV1 infected herpes simplex keratitis New zealand rabbit model at 0.1% administered twice daily as gel 24 hrs post inoculation measured on day 9 post infection; assay type: functional
Human alphaherpesvirus 2 [15] = experiment: Antiviral activity against HSV2 strain 333 infected in african green monkey Vero cells assessed as inhibition of cytopathic effect at 3.5 uM after 48 hrs by plaque reduction assay; assay type: functional, cell-based
Human alphaherpesvirus 1 [16] = experiment: Antiviral activity against HSV1 strain F ATCC VR733 infected in african green monkey Vero cells assessed as inhibition of cytopathic effect at 3.5 uM after 48 hrs by plaque reduction assay; assay type: functional, organism-based

| EC50 (Human alphaherpesvirus 1 [3]) [µM] | EC50 (Human alphaherpesvirus 2 [4]) [µM] | Compound | Activity (Human alphaherpesvirus 1 [1]) | CC50 at 48 h [2] [µM] | inhibition (Human alphaherpesvirus 1 [3]) | inhibition (Human alphaherpesvirus 2 [4]) | inhibition (Human alphaherpesvirus 2 [5]) | selectivity ratio [6] | CC50 at 48 h [7] [µM] | Ratio CC50/EC50 [8] | inhibition (Human alphaherpesvirus 1 [9]) | Activity (Human alphaherpesvirus 1 [10]) | Activity (Human alphaherpesvirus 1 [11]) | Activity (Human alphaherpesvirus 1 [12]) | Activity (Human alphaherpesvirus 1 [13]) [%] | Activity (Human alphaherpesvirus 1 [14]) [%] | inhibition (Human alphaherpesvirus 2 [15]) | inhibition (Human alphaherpesvirus 1 [16]) |
| --- | --- | --- | --- | --- | --- | --- | --- | --- | --- | --- | --- | --- | --- | --- | --- | --- | --- | --- |
| 2.26 | 1.85 | CC1(C)CC(=O)c2c(C(F)(F)F)nn(-c3ccc(C(N)=O)c(N[C@H]4CC[C@H](O)CC4)c3)c2C1 [SNX-2112] | Active | 21.3 | Dose-dependent effect | Dose-dependent effect | Active | 5.9 | 13.3 | 7.21 | Active | Dose-dependent effect | Active | Active |  |  |  |  |
| 2.24 | 1.75 | Cc1nn(-c2ccc(C(N)=O)c(N[C@H]3CC[C@H](O)CC3)c2)c2c1C(=O)CC(C)(C)C2 | Active | 54.1 | Dose-dependent effect | Dose-dependent effect | Active | 12.1 | 27.1 | 15.46 | Active | Dose-dependent effect | Active | Active | 74.23 | 83.76 |  |  |
| 1.03 | 1 | Cc1cn(-c2ccc(C(N)=O)c(N[C@H]3CC[C@H](O)CC3)c2)c2c1C(=O)CC(C)(C)C2 | Active | 24.9 | Dose-dependent effect | Dose-dependent effect | Active | 12.6 | 12.9 | 12.94 | Active | Dose-dependent effect | Active | Active |  |  |  |  |

| Compound | EC50 (Human alphaherpesvirus 1 [3]) [µM] | EC50 (Human alphaherpesvirus 2 [4]) [µM] | Activity (Human alphaherpesvirus 1 [1]) | CC50 at 48 h [2] [µM] | inhibition (Human alphaherpesvirus 1 [3]) | inhibition (Human alphaherpesvirus 2 [4]) | inhibition (Human alphaherpesvirus 2 [5]) | selectivity ratio [6] | CC50 at 48 h [7] [µM] | Ratio CC50/EC50 [8] | inhibition (Human alphaherpesvirus 1 [9]) | Activity (Human alphaherpesvirus 1 [10]) | Activity (Human alphaherpesvirus 1 [11]) | Activity (Human alphaherpesvirus 1 [12]) | Activity (Human alphaherpesvirus 1 [13]) [%] | Activity (Human alphaherpesvirus 1 [14]) [%] | inhibition (Human alphaherpesvirus 2 [15]) | inhibition (Human alphaherpesvirus 1 [16]) |
| --- | --- | --- | --- | --- | --- | --- | --- | --- | --- | --- | --- | --- | --- | --- | --- | --- | --- | --- |
| Nc1nc2c(ncn2COCCO)c(=O)[nH]1 [ACYCLOVIR] | 1.2 | 1.87 | Active |  |  |  |  | > 167 | > 200 | >106.95 |  | Dose-dependent effect | Active |  |  |  | Active | Active |
